According to patent publication US12251382B2, “Substituted amino-pyrimidine compound for use in a method for treatment and prevention of multiple sclerosis” (Merck Patent GmbH, priority 2018, dated 2025):
Entries after “also recorded” stand apart in the source; their conditions may differ. Like-named read-outs stand apart in the source and are kept apart here.

Legend:
[1] = for Overall safety and tolerability: single doses 25-500 mg, multiple doses 25-200 mg for 14 days
Protocol: A randomized, double-blind, placebo-controlled trial conducted in healthy volunteers. […] Written informed consent was obtained from all participants.
Following completion of each dose cohort in both parts of the study, a safety monitoring committee (SMC) decided whether protocol-defined dose escalation to the next level was appropriate to a maximum of 500 mg in Part 1, or to the highest safe and tolerated dose or highest dose from Part 1 in Part 2, based on all safety data and other available data (including PK and PD data). […] Other safety data (e.g., hematology parameters) were also taken into consideration for dose escalation decisions as a matter of course.
TEAEs and SAEs were recorded from time of informed consent until study completion. […] Assessment of severity considered the Toxicity Grading Scale for Healthy Adult and Adolescent Volunteers Enrolled in Preventative Vaccine Clinical Trials. Data were summarized using descriptive statistics.

[2] = tested on: B- and T-cell-mediated EAE mouse models; conditions: cited from earlier work

In the case of `C=CC(=O)N1CCC(CNc2ncnc(N)c2-c2ccc(Oc3ccccc3)cc2)CC1` [Evobrutinib, 1-(4-(((6-amino-5-(4-phenoxyphenyl)pyrimidin-4-yl)amino)methyl)piperidin-1-yl)prop-2-en-1-one], the “Dizziness, subjects” value ([1]; Part 1, single dose 100 mg) is reported as 0 (0.0) n (%), the “Dry eye, subjects” value ([1]; Part 1, single dose 100 mg) is reported as 0 (0.0) n (%) and the “Dry mouth, subjects” value ([1]; Part 1, single dose 100 mg) is reported as 0 (0.0) n (%). For the same compound, the “Dyspepsia, subjects” value ([1]; Part 1, single dose 100 mg) was 0 (0.0) n (%), the “Excoriation, subjects” value ([1]; Part 1, single dose 100 mg) was 0 (0.0) n (%) and the “Headache, subjects” value ([1]; Part 1, single dose 100 mg) was 0 (0.0) n (%). For the same compound, the “Lipase increased, subjects” value ([1]; Part 1, single dose 100 mg) was 0 (0.0) n (%), the “Multiple injuries, subjects” value ([1]; Part 1, single dose 100 mg) was 0 (0.0) n (%) and the “Nasal congestion, number of TEAEs” value ([1]; Part 1, single dose 100 mg) was “[1]”. For the same compound, the “Nasal congestion, subjects” value ([1]; Part 1, single dose 100 mg) was 1 (16.7) n (%), the “Noncardiac chest pain, subjects” value ([1]; Part 1, single dose 100 mg) was 0 (0.0) n (%) and the “Odynophagia, subjects” value ([1]; Part 1, single dose 100 mg) was 0 (0.0) n (%). The “Overall total TEAEs, subjects” value ([1]; Part 1, single dose 100 mg) was 1 (16.7) n (%), the “Overall total, number of TEAEs” value ([1]; Part 1, single dose 100 mg) was “[1]” and the “Upper respiratory tract infection, subjects” value ([1]; Part 1, single dose 100 mg) was 0 (0.0) n (%). For the same compound, the “Abdominal pain, subjects” value ([1]; Part 1, single dose 200 mg) was 0 (0.0) n (%), the “Amylase increased, number of TEAEs” value ([1]; Part 1, single dose 200 mg) was “[1]” and the “Amylase increased, subjects” value ([1]; Part 1, single dose 200 mg) was 1 (16.7) n (%). The “Application site pruritus (due to ECG stickers), subjects” value (“Application site pruritus” below) ([1]; Part 1, single dose 200 mg) was 0 (0.0) n (%), the “Back pain, subjects” value ([1]; Part 1, single dose 200 mg) was 0 (0.0) n (%) and the “Contact dermatitis, subjects” value ([1]; Part 1, single dose 200 mg) was 0 (0.0) n (%). For the same compound, the “Dizziness, number of TEAEs” value ([1]; Part 1, single dose 200 mg) was “[1]”, the “Dizziness, subjects” value ([1]; Part 1, single dose 200 mg) was 1 (16.7) n (%) and the “Dry eye, subjects” value ([1]; Part 1, single dose 200 mg) was 0 (0.0) n (%). For the same compound, the “Dry mouth, subjects” value ([1]; Part 1, single dose 200 mg) was 0 (0.0) n (%), the “Dyspepsia, subjects” value ([1]; Part 1, single dose 200 mg) was 0 (0.0) n (%) and the “Excoriation, number of TEAEs” value ([1]; Part 1, single dose 200 mg) was “[1]”. For the same compound, the “Excoriation, subjects” value ([1]; Part 1, single dose 200 mg) was 1 (16.7) n (%), the “Headache, subjects” value ([1]; Part 1, single dose 200 mg) was 0 (0.0) n (%) and the “Lipase increased, number of TEAEs” value ([1]; Part 1, single dose 200 mg) was “[1]”. The “Lipase increased, subjects” value ([1]; Part 1, single dose 200 mg) was 1 (16.7) n (%), the “Multiple injuries, subjects” value ([1]; Part 1, single dose 200 mg) was 0 (0.0) n (%) and the “Nasal congestion, subjects” value ([1]; Part 1, single dose 200 mg) was 0 (0.0) n (%). The “Noncardiac chest pain, subjects” value ([1]; Part 1, single dose 200 mg) was 0 (0.0) n (%), the “Odynophagia, subjects” value ([1]; Part 1, single dose 200 mg) was 0 (0.0) n (%) and the “Overall total TEAEs, subjects” value ([1]; Part 1, single dose 200 mg) was 2 (33.3) n (%). The “Overall total, number of TEAEs” value ([1]; Part 1, single dose 200 mg) was “[4]”, the “Upper respiratory tract infection, subjects” value ([1]; Part 1, single dose 200 mg) was 0 (0.0) n (%) and the “Abdominal pain, subjects” value ([1]; Part 1, single dose 350 mg) was 0 (0.0) n (%). For the same compound, the “Amylase increased, subjects” value ([1]; Part 1, single dose 350 mg) was 0 (0.0) n (%), the “Application site pruritus” value ([1]; Part 1, single dose 350 mg) was 0 (0.0) n (%) and the “Back pain, subjects” value ([1]; Part 1, single dose 350 mg) was 0 (0.0) n (%). The “Contact dermatitis, subjects” value ([1]; Part 1, single dose 350 mg) was 0 (0.0) n (%), the “Dizziness, subjects” value ([1]; Part 1, single dose 350 mg) was 0 (0.0) n (%) and the “Dry eye, subjects” value ([1]; Part 1, single dose 350 mg) was 0 (0.0) n (%). The “Dry mouth, subjects” value ([1]; Part 1, single dose 350 mg) was 0 (0.0) n (%), the “Dyspepsia, subjects” value ([1]; Part 1, single dose 350 mg) was 0 (0.0) n (%) and the “Excoriation, subjects” value ([1]; Part 1, single dose 350 mg) was 0 (0.0) n (%). The “Headache, subjects” value ([1]; Part 1, single dose 350 mg) was 0 (0.0) n (%), the “Lipase increased, subjects” value ([1]; Part 1, single dose 350 mg) was 0 (0.0) n (%) and the “Multiple injuries, number of TEAEs” value ([1]; Part 1, single dose 350 mg) was “[1]”. The “Multiple injuries, subjects” value ([1]; Part 1, single dose 350 mg) was 1 (16.7) n (%), the “Nasal congestion, subjects” value ([1]; Part 1, single dose 350 mg) was 0 (0.0) n (%) and the “Noncardiac chest pain, subjects” value ([1]; Part 1, single dose 350 mg) was 0 (0.0) n (%). For the same compound, the “Odynophagia, subjects” value ([1]; Part 1, single dose 350 mg) was 0 (0.0) n (%), the “Overall total TEAEs, subjects” value ([1]; Part 1, single dose 350 mg) was 1 (16.7) n (%) and the “Overall total, number of TEAEs” value ([1]; Part 1, single dose 350 mg) was “[1]”. The “Upper respiratory tract infection, subjects” value ([1]; Part 1, single dose 350 mg) was 0 (0.0) n (%), the “Abdominal pain, subjects” value ([1]; Part 1, single dose 500 mg) was 0 (0.0) n (%) and the “Amylase increased, subjects” value ([1]; Part 1, single dose 500 mg) was 0 (0.0) n (%). For the same compound, the “Application site pruritus” value ([1]; Part 1, single dose 500 mg) was 0 (0.0) n (%), the “Back pain, subjects” value ([1]; Part 1, single dose 500 mg) was 0 (0.0) n (%) and the “Contact dermatitis, subjects” value ([1]; Part 1, single dose 500 mg) was 0 (0.0) n (%). The “Dizziness, subjects” value ([1]; Part 1, single dose 500 mg) was 0 (0.0) n (%), the “Dry eye, number of TEAEs” value ([1]; Part 1, single dose 500 mg) was “[1]” and the “Dry eye, subjects” value ([1]; Part 1, single dose 500 mg) was 1 (16.7) n (%). For the same compound, the “Dry mouth, subjects” value ([1]; Part 1, single dose 500 mg) was 0 (0.0) n (%), the “Dyspepsia, subjects” value ([1]; Part 1, single dose 500 mg) was 0 (0.0) n (%) and the “Excoriation, subjects” value ([1]; Part 1, single dose 500 mg) was 0 (0.0) n (%). For the same compound, the “Headache, number of TEAEs” value ([1]; Part 1, single dose 500 mg) was “[2]”, the “Headache, subjects” value ([1]; Part 1, single dose 500 mg) was 1 (16.7) n (%) and the “Lipase increased, subjects” value ([1]; Part 1, single dose 500 mg) was 0 (0.0) n (%). The “Multiple injuries, subjects” value ([1]; Part 1, single dose 500 mg) was 0 (0.0) n (%), the “Nasal congestion, subjects” value ([1]; Part 1, single dose 500 mg) was 0 (0.0) n (%) and the “Noncardiac chest pain, subjects” value ([1]; Part 1, single dose 500 mg) was 0 (0.0) n (%). For the same compound, the “Odynophagia, number of TEAEs” value ([1]; Part 1, single dose 500 mg) was “[1]”, the “Odynophagia, subjects” value ([1]; Part 1, single dose 500 mg) was 1 (16.7) n (%) and the “Overall total TEAEs, subjects” value ([1]; Part 1, single dose 500 mg) was 2 (33.3) n (%). For the same compound, the “Overall total, number of TEAEs” value ([1]; Part 1, single dose 500 mg) was “[3]”, the “Upper respiratory tract infection, subjects” value ([1]; Part 1, single dose 500 mg) was 0 (0.0) n (%) and the “Subjects with TEAEs” value ([1]; Part 1, single dosing, all evobrutinib doses) was 25%. For the same compound, the “TEAEs leading to discontinuation; trends in vital signs, ECGs, laboratory values, IgG subclasses” value ([1]; either part of the study) was “no TEAEs leading to discontinuation and no clinically significant trends in vital signs, ECGs, laboratory values or immunoglobulin G (IgG) subclasses”, the “SAE of multi-trauma due to an automobile accident, relation to study drug” value ([1]; one subject, 350 mg single ascending dose cohort, 7 days after administration) was “unrelated to the study drug” and the “Deaths or serious adverse events (SAEs) related to treatment” value ([1]; single and multiple dosing (Parts 1 and 2)) was “no deaths or serious adverse events (SAEs) related to treatment”. For the same compound, the “Overall safety and tolerability” value [1] was “well tolerated”, the “Overall safety and tolerability” value ([1]; listed as evobrutinib) was “safe and well tolerated and no non-tolerated dose could be defined; also recorded: safe and well tolerated” and the “CNS inflammation, demyelination and disease severity (clinical scoring)” value [2] was “potential to reduce CNS inflammation and demyelination and ameliorate disease severity”.
